ChEMBL document CHEMBL4152224, “The Identification of Potent, Selective, and Orally Available Inhibitors of Ataxia Telangiectasia Mutated (ATM) Kinase: The Discovery of AZD0156 (8-{6-[3-(Dimethylamino)propoxy]pyridin-3-yl}-3-methyl-1-(tetrahydro-2 H-pyran-4-yl)-1,3-dihydro-2 H-imidazo[4,5- c]quinolin-2-one)” (J Med Chem, 2018)
≈ marks a conversion by molar mass, not a printed value.

Tests used:
[1] = molecular target: Serine/threonine-protein kinase ATR (Homo sapiens, UniProt Q13535)
[2] = Buffer/octanol partition coefficient, log D of the compound at pH 7.4 by shake flask method; format: physicochemical
[3] = Intrinsic clearance in human hepatocytes assessed per million cells
[4] = Intrinsic clearance in rat hepatocytes assessed per million cells
[5] = molecular target: Serine-protein kinase ATM (Homo sapiens, UniProt Q13315)
Serine-protein kinase ATM, sequence (Q13315 whole entry): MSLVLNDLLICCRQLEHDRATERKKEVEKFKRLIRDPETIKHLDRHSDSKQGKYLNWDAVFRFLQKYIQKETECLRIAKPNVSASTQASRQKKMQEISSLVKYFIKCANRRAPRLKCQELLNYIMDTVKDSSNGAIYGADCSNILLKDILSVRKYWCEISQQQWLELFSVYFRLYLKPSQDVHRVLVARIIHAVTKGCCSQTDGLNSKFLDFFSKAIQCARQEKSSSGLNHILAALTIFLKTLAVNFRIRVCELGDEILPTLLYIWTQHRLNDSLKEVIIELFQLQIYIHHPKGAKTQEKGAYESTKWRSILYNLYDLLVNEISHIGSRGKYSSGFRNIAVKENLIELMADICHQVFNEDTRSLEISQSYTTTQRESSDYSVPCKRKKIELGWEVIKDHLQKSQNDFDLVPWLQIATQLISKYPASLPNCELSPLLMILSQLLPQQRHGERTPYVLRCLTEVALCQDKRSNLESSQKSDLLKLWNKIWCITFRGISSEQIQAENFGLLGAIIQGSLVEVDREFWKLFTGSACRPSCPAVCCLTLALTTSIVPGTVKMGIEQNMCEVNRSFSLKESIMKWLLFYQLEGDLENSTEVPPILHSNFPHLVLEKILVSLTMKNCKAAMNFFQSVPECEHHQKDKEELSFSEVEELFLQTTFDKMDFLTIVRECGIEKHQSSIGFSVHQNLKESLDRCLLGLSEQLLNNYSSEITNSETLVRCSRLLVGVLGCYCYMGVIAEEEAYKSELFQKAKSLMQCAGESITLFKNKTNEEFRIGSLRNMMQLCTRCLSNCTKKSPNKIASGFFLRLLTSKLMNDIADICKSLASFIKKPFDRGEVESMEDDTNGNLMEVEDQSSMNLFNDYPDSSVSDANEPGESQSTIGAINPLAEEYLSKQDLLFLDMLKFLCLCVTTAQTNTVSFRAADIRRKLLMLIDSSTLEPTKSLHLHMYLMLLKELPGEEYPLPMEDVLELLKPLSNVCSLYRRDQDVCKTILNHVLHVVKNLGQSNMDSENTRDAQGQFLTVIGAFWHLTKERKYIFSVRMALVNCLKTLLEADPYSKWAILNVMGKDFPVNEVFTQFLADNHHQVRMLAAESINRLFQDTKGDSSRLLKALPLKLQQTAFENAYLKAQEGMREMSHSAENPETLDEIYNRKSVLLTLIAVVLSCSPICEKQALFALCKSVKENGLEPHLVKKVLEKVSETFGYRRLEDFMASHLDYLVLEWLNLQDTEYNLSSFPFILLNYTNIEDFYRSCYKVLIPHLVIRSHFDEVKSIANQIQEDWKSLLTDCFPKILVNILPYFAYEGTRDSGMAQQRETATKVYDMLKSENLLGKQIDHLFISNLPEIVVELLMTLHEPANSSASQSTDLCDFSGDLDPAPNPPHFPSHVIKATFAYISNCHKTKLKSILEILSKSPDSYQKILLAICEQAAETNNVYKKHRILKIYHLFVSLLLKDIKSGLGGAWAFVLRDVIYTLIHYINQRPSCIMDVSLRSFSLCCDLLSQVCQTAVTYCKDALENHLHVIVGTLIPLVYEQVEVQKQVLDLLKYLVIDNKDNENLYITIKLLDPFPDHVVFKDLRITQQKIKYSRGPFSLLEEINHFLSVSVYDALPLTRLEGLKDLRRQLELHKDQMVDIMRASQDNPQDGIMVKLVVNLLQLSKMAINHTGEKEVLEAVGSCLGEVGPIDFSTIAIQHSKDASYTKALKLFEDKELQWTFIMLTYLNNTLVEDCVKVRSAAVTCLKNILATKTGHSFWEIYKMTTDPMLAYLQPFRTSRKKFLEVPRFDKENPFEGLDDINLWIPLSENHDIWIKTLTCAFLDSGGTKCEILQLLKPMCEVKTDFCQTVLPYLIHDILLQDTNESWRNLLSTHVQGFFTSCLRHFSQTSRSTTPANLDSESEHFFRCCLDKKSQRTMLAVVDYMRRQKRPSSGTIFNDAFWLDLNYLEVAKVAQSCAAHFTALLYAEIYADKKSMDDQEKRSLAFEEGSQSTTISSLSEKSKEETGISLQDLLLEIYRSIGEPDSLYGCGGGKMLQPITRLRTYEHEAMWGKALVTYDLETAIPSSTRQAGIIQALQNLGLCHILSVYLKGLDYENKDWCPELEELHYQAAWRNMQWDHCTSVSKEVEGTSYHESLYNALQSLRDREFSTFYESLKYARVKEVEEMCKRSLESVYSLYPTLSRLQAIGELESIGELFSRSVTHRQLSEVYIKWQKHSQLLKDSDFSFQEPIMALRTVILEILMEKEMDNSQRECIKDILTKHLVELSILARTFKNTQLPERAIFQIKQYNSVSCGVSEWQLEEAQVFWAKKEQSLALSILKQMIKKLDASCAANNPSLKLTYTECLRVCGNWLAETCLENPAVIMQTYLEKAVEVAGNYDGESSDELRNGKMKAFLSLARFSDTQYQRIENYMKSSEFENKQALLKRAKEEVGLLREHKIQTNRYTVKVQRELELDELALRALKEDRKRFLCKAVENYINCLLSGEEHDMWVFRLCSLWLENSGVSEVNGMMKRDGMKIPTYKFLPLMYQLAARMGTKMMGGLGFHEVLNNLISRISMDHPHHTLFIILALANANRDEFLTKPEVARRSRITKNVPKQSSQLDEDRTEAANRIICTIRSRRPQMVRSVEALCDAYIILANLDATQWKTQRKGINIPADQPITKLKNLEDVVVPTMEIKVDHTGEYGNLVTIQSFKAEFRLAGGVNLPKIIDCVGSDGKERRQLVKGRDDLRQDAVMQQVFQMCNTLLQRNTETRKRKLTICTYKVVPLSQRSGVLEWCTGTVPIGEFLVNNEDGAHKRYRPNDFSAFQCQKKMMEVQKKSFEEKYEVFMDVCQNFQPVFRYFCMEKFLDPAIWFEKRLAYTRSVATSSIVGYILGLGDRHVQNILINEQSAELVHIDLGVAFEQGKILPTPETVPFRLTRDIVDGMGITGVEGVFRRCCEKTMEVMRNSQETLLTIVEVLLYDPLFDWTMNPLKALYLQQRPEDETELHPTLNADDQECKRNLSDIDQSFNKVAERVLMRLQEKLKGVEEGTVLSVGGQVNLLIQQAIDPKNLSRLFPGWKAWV

[6] = molecular target: Voltage-gated inwardly rectifying potassium channel KCNH2 (Homo sapiens, UniProt Q12809); test: Inhibition of human ERG by electrophysiology assay
Voltage-gated inwardly rectifying potassium channel KCNH2, sequence (Q12809 whole entry): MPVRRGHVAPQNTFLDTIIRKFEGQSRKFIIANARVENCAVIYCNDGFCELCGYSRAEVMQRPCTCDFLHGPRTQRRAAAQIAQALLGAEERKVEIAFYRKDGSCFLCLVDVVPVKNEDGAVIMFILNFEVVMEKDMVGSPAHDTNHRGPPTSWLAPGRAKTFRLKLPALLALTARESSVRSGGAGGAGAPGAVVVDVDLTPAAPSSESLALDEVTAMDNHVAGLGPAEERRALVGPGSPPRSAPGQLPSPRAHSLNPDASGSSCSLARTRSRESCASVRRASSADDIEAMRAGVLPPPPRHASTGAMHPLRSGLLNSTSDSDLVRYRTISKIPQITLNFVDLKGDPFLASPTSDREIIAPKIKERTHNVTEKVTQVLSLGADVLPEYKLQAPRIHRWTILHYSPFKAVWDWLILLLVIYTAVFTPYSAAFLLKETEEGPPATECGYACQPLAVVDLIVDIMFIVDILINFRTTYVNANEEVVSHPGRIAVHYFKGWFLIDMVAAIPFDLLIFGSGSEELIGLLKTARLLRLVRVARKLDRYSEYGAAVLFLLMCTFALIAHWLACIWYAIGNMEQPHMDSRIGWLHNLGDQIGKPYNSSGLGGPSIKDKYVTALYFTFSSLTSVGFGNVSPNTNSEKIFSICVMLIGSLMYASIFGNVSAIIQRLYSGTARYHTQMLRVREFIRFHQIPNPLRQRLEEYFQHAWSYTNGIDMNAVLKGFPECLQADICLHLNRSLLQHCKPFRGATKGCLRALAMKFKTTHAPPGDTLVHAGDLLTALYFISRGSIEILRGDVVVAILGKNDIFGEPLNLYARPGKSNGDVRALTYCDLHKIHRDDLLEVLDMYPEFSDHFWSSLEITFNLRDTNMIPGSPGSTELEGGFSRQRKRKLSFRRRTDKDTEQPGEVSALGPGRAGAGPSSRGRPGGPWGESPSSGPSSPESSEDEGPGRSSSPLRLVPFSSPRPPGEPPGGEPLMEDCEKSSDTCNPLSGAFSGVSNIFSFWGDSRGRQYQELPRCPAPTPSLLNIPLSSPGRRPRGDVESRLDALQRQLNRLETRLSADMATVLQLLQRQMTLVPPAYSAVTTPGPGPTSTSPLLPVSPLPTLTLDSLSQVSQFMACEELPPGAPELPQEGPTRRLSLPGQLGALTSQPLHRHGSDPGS

[7] = Thermodynamic solubility of the compound in 0.1M aqueous phosphate buffer at pH 7.4 after 24 hrs by LC-UV analysis; format: physicochemical; settings: read-out: Therm_solubility
in vitro = settings: dog, MDCK-MDR1
Description: Efflux ratio of apparent permeability across basolateral to apical over apical to basolateral side in MDCK cells overexpressing MDR1

[8] = Apparent permeability across apical to basolateral side in MDCK cells overexpressing MDR1; format: ADME, cell-based, Canis lupus familiaris; settings: dog
[9] = Dissociation constant, pKa of the compound; format: physicochemical

| Structure (SMILES) | IC50 [1] [µM] | logD [2] | hepatocyte CLint [3] [µL/min/1e6 cells] | hepatocyte CLint [4] [µL/min/1e6 cells] | IC50 [5] [µM] | IC50 [6] [µM] | solubility thermodynamic at 24 h [7] [µM] | efflux ratio (in vitro) | Papp A→B [8] [×10⁻⁶ cm/s] | pKa [9] |
| --- | --- | --- | --- | --- | --- | --- | --- | --- | --- | --- |
| CN(C)CCCOc1ccc(-c2ccc3ncc4c(c3n2)n(C2CCOCC2)c(=O)n4C)cn1 | 2 | 1.6 | 12.8 | 9.2 | 0.0017 | – | – | – | – | – |
| CN(C)CCCOc1ccc(-c2ccc3nnc4c(c3c2)n(C2CCOCC2)c(=O)n4C)cn1 | > 30 | 0.8 | < 1 | 2.5 | 0.022 | – | – | – | – | – |
| CO[C@H]1C[C@@H](n2c(=O)n(C)c3cnc4cc(F)c(-c5ccc(NCCN(C)C)nc5)cc4c32)C1 | > 30 | 1.7 | 2.8 | 9.6 | 0.006 | 24 | > 1000 | 11 | 3.4 | – |
| Cn1c(=O)n(C2CCOCC2)c2c3cc(-c4ccc(OCCC[N+](C)(C)[O-])nc4)ccc3ncc21 | 10 | – | – | – | 0.005 | – | – | – | – | – |
| COCc1ccc(-c2cc3c(N[C@@H](C)c4ccn(C)n4)c(C(N)=O)cnc3cc2F)cn1 | – | – | – | – | – | – | – | 8.7 | 12 | – |
| Cn1c(=O)n([C@H]2CCCOC2)c2c3cc(-c4ccc(OCCCN5CCCCC5)nc4)c(F)cc3ncc21 | – | 2.4 | 4 | 6.2 | 0.0011 | 18 | 330 (≈ 171 µg/mL) | 1.4 | 7.1 | – |
| COCc1ccc(-c2ccc3ncc4c(c3c2)n(C2CCOCC2)c(=O)n4C)cn1 | > 13 | 2.3 | < 3 | 63 | – | > 33 | 19 (≈ 7.68 µg/mL) | – | 32 | – |
| CO[C@H]1C[C@@H](n2c(=O)n(C)c3cnc4cc(F)c(-c5ccc(OCCCN(C)C)nc5F)cc4c32)C1 | – | 2.1 | 14 | 9 | – | 22 | > 1000 | 2.5 | 10 | – |
| CN(C)CCCOc1ccc(-c2ccc3ncc4c(c3c2)n([C@H]2CCCOC2)c(=O)n4C)cn1 | – | 1.8 | 6.1 | 3 | – | 27 | > 1000 | – | 6.5 | – |
| COCc1ccc(-c2cc3c(cc2F)ncc2c3n([C@H]3C[C@H](OC)C3)c(=O)n2C)cn1 | > 28 | 3 | 8.4 | 4.3 | 0.16 | 8.9 | 49 (≈ 20.7 µg/mL) | 0.6 | 28 | – |
| CNCCCOc1ccc(-c2ccc3ncc4c(c3c2)n([C@H]2C[C@@H](OC)C2)c(=O)n4C)cn1 | – | 0.4 | 4.4 | 4.8 | – | > 33 | 930 (≈ 416 µg/mL) | 41 | 0.65 | 10.3 |
| CO[C@H]1C[C@@H](n2c(=O)n(C)c3cnc4ccc(-c5ccc(OCCCN(C)C)nc5F)cc4c32)C1 | – | 2 | 15 | 9.3 | – | > 33 | > 1100 | – | 4.2 | – |
| CO[C@H]1C[C@@H](n2c(=O)n(C)c3cnc4ccc(-c5ccc(OCCCN6CCOCC6)nc5)cc4c32)C1 | > 30 | 1.4 | – | 28 | > 28 | – | 980 (≈ 494 µg/mL) | – | – | 6.7 |
| CO[C@H]1C[C@@H](n2c(=O)n(C)c3cnc4ccc(-c5ccc(OCCCN6CCC6)nc5)cc4c32)C1 | > 24 | 1.4 | 3.3 | 2.5 | – | > 33 | 770 (≈ 365 µg/mL) | 7.8 | 3.5 | – |
| CO[C@H]1C[C@@H](n2c(=O)n(C)c3cnc4cc(F)c(-c5ccc(N(C)CCN(C)C)nc5)cc4c32)C1 | > 30 | 2.2 | 5.1 | 18 | 0.23 | – | > 1000 | – | 6.3 | – |
| CO[C@H]1C[C@@H](n2c(=O)n(C)c3cnc4ccc(-c5ccc(OCCCN6CCCC6)nc5)cc4c32)C1 | > 24 | 1.8 | 5.3 | < 1.3 | 0.00017 | > 33 | > 1100 | 9.4 | 2.5 | – |
| CCC(CC)CNc1c(C(N)=O)cnc2cc(F)c(-c3cnc(NCCN4CCCC4)nc3)cc12 | > 30 | 2.8 | – | – | 0.0086 | – | – | 28 | 0.8 | – |

| Structure (SMILES) | IC50 [1] [µM] | logD [2] | hepatocyte CLint [3] [µL/min/1e6 cells] | hepatocyte CLint [4] [µL/min/1e6 cells] | IC50 [5] [µM] | IC50 [6] [µM] | solubility thermodynamic at 24 h [7] [µM] | efflux ratio (in vitro) | Papp A→B [8] [×10⁻⁶ cm/s] | pKa [9] |
| --- | --- | --- | --- | --- | --- | --- | --- | --- | --- | --- |
| CN(C)CCCOc1ccc(-c2ccc3ncc4c(c3c2)n(C2COC2)c(=O)n4C)cn1 | – | 0.7 | < 1 | 7.8 | – | > 33 | 52 (≈ 22.5 µg/mL) | 9.8 | 3.2 | – |
| CN(C)CCCOc1ccc(-c2ccc3ncc4c(c3c2)n([C@@H]2CCCOC2)c(=O)n4C)cn1 | > 23 | 1.8 | 5.6 | 3.7 | – | > 33 | > 1000 | – | 7.5 | – |
| Cn1c(=O)n(C2CCOCC2)c2c3cc(-c4ccc(OCCCN5CCCCC5)nc4)c(F)cc3ncc21 | > 29 | 2.1 | 5.3 | 5.1 | 0.0012 | > 33 | 310 (≈ 161 µg/mL) | 2.2 | 6.4 | – |
| CC(C)n1c(=O)n(C2CCOCC2)c2c3cc(-c4cccnc4)ccc3ncc21 | > 27.6 | 2.9 | – | – | > 30 | – | 41 (≈ 15.9 µg/mL) | – | – | – |
| COCc1ccc(-c2cc3c(cc2F)ncc2c3n(C3CCOCC3)c(=O)n2C)cn1 | > 20 | 2.4 | < 4 | 7.5 | 0.45 | 27 | 99 (≈ 41.8 µg/mL) | 0.8 | 43 | – |
| CO[C@H]1C[C@@H](n2c(=O)n(C)c3cnc4cc(F)c(-c5ccc(CO)nc5)cc4c32)C1 | 15 | 2 | – | 5 | 0.23 | 23 | 23 (≈ 9.39 µg/mL) | 1.1 | 29 | – |
| CO[C@H]1C[C@@H](n2c(=O)n(C)c3cnc4cc(F)c(-c5ccc(OCCCN(C)C)nc5)cc4c32)C1 | – | 1.8 | 7.9 | 6.6 | – | > 33 | > 980 | 6.2 | 6.8 | 9.3 |
| CN(C)CCCOc1ccc(-c2ccc3ncc4c(c3c2)n([C@H]2C[C@@H](O)C2)c(=O)n4C)cn1 | – | 1.1 | 3.5 | 2.7 | – | > 33 | > 1000 | > 100 | < 0.2 | – |
| CO[C@H]1C[C@@H](n2c(=O)n(C)c3cnc4ccc(-c5ccc(OCCCN6CCCCC6)nc5)cc4c32)C1 | – | 2.2 | 3 | 4 | – | 14 | > 1000 | – | 5.4 | – |
| CN(C)CCCOc1ccc(-c2cc3c(cc2F)ncc2c3n(C3CCOCC3)c(=O)n2C)cn1 | – | 1.5 | 6.8 | 8.3 | – | > 33 | > 1000 | 4.4 | 7.9 | – |
| COCc1ccc(-c2cc3c(cc2F)ncc2c3n([C@H]3C[C@@H](O)C3)c(=O)n2C)cn1 | > 30 | 2 | 2.7 | 6 | 0.14 | 15 | 270 (≈ 110 µg/mL) | 2.6 | 14 | – |
| CO[C@H]1C[C@@H](n2c(=O)n(C)c3cnc4cc(F)c(-c5ccc(C(=O)NCCN(C)C)nc5)cc4c32)C1 | > 30 | 1.5 | 4 | 2.9 | 0.13 | > 33 | 980 (≈ 483 µg/mL) | 11 | 2.5 | – |
| O=c1[nH]c2cnc3ccc(-c4cccnc4)cc3c2n1C1CCOCC1 | 0.051 | 2.4 | – | – | – | – | 12 (≈ 4.16 µg/mL) | – | – | – |
| CO[C@H]1C[C@@H](n2c(=O)n(C)c3cnc4cc(F)c(-c5ccc(NC(=O)CCCN(C)C)nc5)cc4c32)C1 | > 30 | 1.1 | 6.5 | 7 | 0.0082 | 18 | 870 (≈ 441 µg/mL) | 77 | 0.4 | – |
| CO[C@H]1C[C@@H](n2c(=O)n(C)c3cnc4cc(F)c(-c5ccc(CS(C)(=O)=O)nc5)cc4c32)C1 | > 16 | 1.3 | – | 2.4 | 0.16 | 14 | 18 (≈ 8.47 µg/mL) | 2.4 | 14 | – |
| COCc1ccc(-c2cc3c(cc2F)ncc2c3n([C@@H](C)C3CCOCC3)c(=O)n2C)cn1 | > 30 | 2.7 | 22 | 1.6 | 0.49 | 15 | > 1000 | 0.8 | 27 | – |
| COCc1ccc(-c2cc3c(cc2F)ncc2c3n([C@H]3CC[C@H](OC)CC3)c(=O)n2C)cn1 | > 26 | 3.2 | 10 | 10 | 0.24 | 27 | 84 (≈ 37.8 µg/mL) | 0.6 | 20 | – |
